# From article PMC7176540 (Chembiochem : a European journal of chemical biology, 2019)
# Target: AlaI (Streptomyces alanosinicus, UniProt A0A6H1Z626)
# Assay: co-purification with the enzyme
# Assay type: binding
# Conditions: 10 uM FAD also added in assay; pH 8.0
compound,measurement,value
Cc1cc2nc3c(=O)[nH]c(=O)nc-3n(C[C@H](O)[C@H](O)[C@H](O)COP(=O)(O)OP(=O)(O)OC[C@H]3O[C@@H](n4cnc5c(N)ncnc54)[C@H](O)[C@@H]3O)c2cc1C [FAD],co-purification with the enzyme,"AlaI purified with FAD, hence we still observed activity without exogenous FAD added"
